Reference: ChEMBL document CHEMBL1201862, “PubChem BioAssay data set” (2004)
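Grown in 96-well plates, cells were treated for 48 hours with each compound at five concentrations. Insufficient inhibition: endpoint recorded as highest concentration tested. Here, GI50 denotes the concentration required for 50% inhibition of growth.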 Activity calls are given as the source filed them. No stated cut-off is given here; in the data, active = GI50 up to about 1.1 µM and inactive = higher.

Key:
Assay in all cases: NCI-60 cell line screen, 48 h
[1] = system: 786-0
[2] = system: ACHN
[3] = system: EKVX
[4] = system: KM12
[5] = system: M14
[6] = system: MOLT-4
[7] = system: NCI-H23
[8] = system: OVCAR-5
[9] = system: RXF 393
[10] = system: SF-539
[11] = system: SNB-19
[12] = system: SW-620
[13] = system: UACC-257
[14] = system: SNB-75
[15] = system: UACC-62

| SMILES | GI50 [1] | GI50 [2] | GI50 [3] | GI50 [4] | GI50 [5] | GI50 [6] | GI50 [7] | GI50 [8] | GI50 [9] | GI50 [10] | GI50 [11] | GI50 [12] | GI50 [13] | GI50 [14] | GI50 [15] |
| --- | --- | --- | --- | --- | --- | --- | --- | --- | --- | --- | --- | --- | --- | --- | --- |
| COC(=O)Cc1cc(=O)[nH]c2c1C(=O)CCC2 | > 100 µM (inactive) | > 100 µM (inactive) | > 100 µM (inactive) | > 100 µM (inactive) | > 100 µM (inactive) | > 100 µM (inactive) | > 100 µM (inactive) | > 100 µM (inactive) | > 100 µM (inactive) | > 100 µM (inactive) | > 100 µM (inactive) | > 100 µM (inactive) | > 100 µM (inactive) |  |  |
| COC1/C(=C\C(C)=O)c2ccccc2N1C(C)=O (stereo not drawn) | > 100 µM (inactive) | > 100 µM (inactive) | > 100 µM (inactive) | > 100 µM (inactive) | > 100 µM (inactive) | > 100 µM (inactive) | > 100 µM (inactive) |  | > 100 µM (inactive) | > 100 µM (inactive) | > 100 µM (inactive) | > 100 µM (inactive) | > 100 µM (inactive) | > 100 µM (inactive) | > 100 µM (inactive) |
| c1ccc2c(CNCCCN3CCN(CCCNCc4cccc5ccccc45)CC3)cccc2c1 | 1.91 µM (inactive) | 2.75 µM (inactive) | 3.6 µM (inactive) | 1.96 µM (inactive) | 1.18 µM (inactive) | 1.22 µM (inactive) | 11.4 µM (inactive) | 2.15 µM (inactive) | 1.08 µM (active) | 1.61 µM (inactive) |  | 1.77 µM (inactive) | 1.92 µM (inactive) | 1.74 µM (inactive) | 1.79 µM (inactive) |
| CC(=O)CC(=O)CCCC(=O)Nc1ccc(Cl)cc1C | > 100 µM (inactive) | > 100 µM (inactive) | > 100 µM (inactive) | > 100 µM (inactive) | > 100 µM (inactive) | > 100 µM (inactive) | > 100 µM (inactive) | > 100 µM (inactive) |  | > 100 µM (inactive) | > 100 µM (inactive) | > 100 µM (inactive) | > 100 µM (inactive) |  | > 100 µM (inactive) |
| O=C(CC1(O)C(=O)Nc2ccccc21)c1ccco1 (stereo not drawn) | > 100 µM (inactive) | > 100 µM (inactive) | > 100 µM (inactive) |  | > 100 µM (inactive) | > 100 µM (inactive) | > 100 µM (inactive) | > 100 µM (inactive) | > 100 µM (inactive) | > 100 µM (inactive) | > 100 µM (inactive) | > 100 µM (inactive) | > 100 µM (inactive) | 94.8 µM (inactive) | > 100 µM (inactive) |
| COc1ccc(NC(=O)CC(=O)n2nc(-c3ccccc3)c(/N=N/c3ccccc3C(=O)O)c2-c2ccccc2)cc1 | 21.9 µM (inactive) | > 100 µM (inactive) | 34.6 µM (inactive) | > 100 µM (inactive) |  | 40.6 µM (inactive) | > 100 µM (inactive) | > 100 µM (inactive) | 28.8 µM (inactive) | 55.1 µM (inactive) | 63 µM (inactive) | > 100 µM (inactive) |  |  | > 100 µM (inactive) |
| COc1ccc2c(c1)[n+]([O-])c(C(N)=O)c(N)[n+]2[O-] | 93.1 µM (inactive) | > 100 µM (inactive) | > 100 µM (inactive) | 59.2 µM (inactive) | 75.5 µM (inactive) |  | 28.8 µM (inactive) | > 100 µM (inactive) |  | > 100 µM (inactive) | > 100 µM (inactive) | 57.9 µM (inactive) | 28.6 µM (inactive) | 65.6 µM (inactive) |  |
| O=[N+]([O-])c1ccc(/C=C/c2ccc(/C=C/c3ccc([N+](=O)[O-])cc3[N+](=O)[O-])cc2)c([N+](=O)[O-])c1 | > 100 µM (inactive) | > 100 µM (inactive) | > 100 µM (inactive) | > 100 µM (inactive) | > 100 µM (inactive) | > 100 µM (inactive) | > 100 µM (inactive) | > 100 µM (inactive) | > 100 µM (inactive) | > 100 µM (inactive) |  | > 100 µM (inactive) | > 100 µM (inactive) | > 100 µM (inactive) | > 100 µM (inactive) |
| O=[N+]([O-])c1cc2c(cc1O)[nH]c1cccc([N+](=O)[O-])c12 | > 100 µM (inactive) | > 100 µM (inactive) |  | > 100 µM (inactive) | > 100 µM (inactive) | > 100 µM (inactive) | > 100 µM (inactive) | > 100 µM (inactive) |  | > 100 µM (inactive) | > 100 µM (inactive) | > 100 µM (inactive) | > 100 µM (inactive) | > 100 µM (inactive) |  |
| COc1ccc(Br)c(CCCCC(=O)O)c1 | > 100 µM (inactive) | > 100 µM (inactive) | > 100 µM (inactive) |  | > 100 µM (inactive) | > 100 µM (inactive) | > 100 µM (inactive) |  | > 100 µM (inactive) | > 100 µM (inactive) | > 100 µM (inactive) | > 100 µM (inactive) | > 100 µM (inactive) | > 100 µM (inactive) | > 100 µM (inactive) |
| Cc1ccc(C(=O)O/N=C2/CCCCC2CN(C)C)cc1 (stereo not drawn) | > 100 µM (inactive) | > 100 µM (inactive) | > 100 µM (inactive) | > 100 µM (inactive) | > 100 µM (inactive) | > 100 µM (inactive) | > 100 µM (inactive) | > 100 µM (inactive) | > 100 µM (inactive) | > 100 µM (inactive) |  |  | > 100 µM (inactive) | > 100 µM (inactive) | > 100 µM (inactive) |
| c1ccc2cc(-c3cc4ccccc4s3)ccc2c1 | > 100 µM (inactive) | > 100 µM (inactive) | > 100 µM (inactive) | > 100 µM (inactive) | > 100 µM (inactive) | 38.2 µM (inactive) | > 100 µM (inactive) | > 100 µM (inactive) |  | > 100 µM (inactive) | > 100 µM (inactive) | > 100 µM (inactive) | > 100 µM (inactive) | 23.1 µM (inactive) | > 100 µM (inactive) |
| CCOC(=O)C/C(=N\c1cc(C)on1)N(CC)CC.[O-][Cl+3]([O-])([O-])O | > 100 µM (inactive) | > 100 µM (inactive) | > 100 µM (inactive) | > 100 µM (inactive) | > 100 µM (inactive) | > 100 µM (inactive) | > 100 µM (inactive) | > 100 µM (inactive) |  | > 100 µM (inactive) | > 100 µM (inactive) | > 100 µM (inactive) |  | > 100 µM (inactive) | > 100 µM (inactive) |
| COc1ccc(/C(Cl)=C/c2ccc(Cl)c(Cl)c2)cc1 | 32.5 µM (inactive) | 24.8 µM (inactive) | 20.2 µM (inactive) |  | 33.2 µM (inactive) | 16.2 µM (inactive) | 19 µM (inactive) |  | 15.2 µM (inactive) | 43.7 µM (inactive) | 63.4 µM (inactive) | 43.2 µM (inactive) | 24.3 µM (inactive) | 28.5 µM (inactive) | 24.3 µM (inactive) |
| COc1ccc(Cc2c(=O)[nH]nc3ccccc23)cc1 | > 100 µM (inactive) | > 100 µM (inactive) | > 100 µM (inactive) | > 100 µM (inactive) | > 100 µM (inactive) | > 100 µM (inactive) | 61 µM (inactive) | > 100 µM (inactive) |  | > 100 µM (inactive) | > 100 µM (inactive) | > 100 µM (inactive) | > 100 µM (inactive) | 29 µM (inactive) | > 100 µM (inactive) |
